Patent US8383637B2, “2-amino-quinazoline derivatives useful as inhibitors of β-secretase (BACE)” (Jansssen Pharmaceutica N.V., priority 2004, dated 2013)
Values joined by “and” are separate entries in the source; they are usually repeats but may differ in a detail not shown here. Equal values may be shown once.

Tests used:
Type in all cases: biochemical
β-secretase(BACE) [1] = molecular target: T1, β-secretase(BACE) (Homo sapiens, UniProt P56817); experiment: BACE Assay-1 (MCA-substrate, IC50); settings: procedure of Example 158; read-out: IC50 μM (158)
T1 construct: purchased Panvera
T1 sequence (P56817 46-501): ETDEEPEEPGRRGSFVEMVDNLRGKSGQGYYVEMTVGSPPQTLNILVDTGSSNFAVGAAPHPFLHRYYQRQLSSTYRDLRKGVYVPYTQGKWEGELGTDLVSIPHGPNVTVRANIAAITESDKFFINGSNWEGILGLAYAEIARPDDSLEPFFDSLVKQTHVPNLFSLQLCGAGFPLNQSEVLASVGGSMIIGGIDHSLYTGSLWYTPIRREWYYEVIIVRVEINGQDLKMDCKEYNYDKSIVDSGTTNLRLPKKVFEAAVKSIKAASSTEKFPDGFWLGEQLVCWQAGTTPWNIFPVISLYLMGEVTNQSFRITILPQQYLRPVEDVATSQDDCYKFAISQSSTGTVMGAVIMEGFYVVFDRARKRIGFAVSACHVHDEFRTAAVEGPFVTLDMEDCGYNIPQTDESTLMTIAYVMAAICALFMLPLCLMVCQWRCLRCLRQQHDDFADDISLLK
In short: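 Human BACE (work solution 10 μg/mL) with MCA-peptide substrate (stock 2.0 mg/mL) in 0.05 M citrate buffer, pH 5.0, with PEG8000. Fluorescence read at T0 and T60; compounds tested at multiple concentrations and IC50 calculated from these readings.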

β-secretase(BACE) [2] = molecular target: T1, β-secretase(BACE); experiment: BACE Assay-2 (FS1 substrate, IC50 and Ki); settings: procedure of Example 159, FS1 substrate; for Ki: read-out: Ki μM (159)
β-secretase(BACE) [3] = molecular target: T1, β-secretase(BACE); experiment: BACE % Inhibition Assay ((Aedens)-[…]-(Dabcyl K-amide) substrate); settings: % error ±10%; for inhibition at 3 µM / inhibition at 10 µM: read-out: % Inhibition; for inhibition at 0.3 µM: 0.3 μM test compound; for inhibition at 1 µM: 1 μM test compound
Method: The substrate stock solution was prepared in DMSO as a 10 mg/mL solution. The substrate working solution was prepared by diluting the 10 mg/mL stock solution with substrate assay buffer to a final concentration of 300 μg/mL. The β-secretase (BACE) working solution was prepared by diluting a 0.83 mg/mL BACE stock solution with enzyme assay buffer to a final concentration of 4 μg/mL.
Test compounds were dissolved in DMSO to 10 mM.
The screening procedure for this assay was as follows: 15 μL of BACE working solution was pipetted into each well of a 96-well plate. To each well was then pipetted 2 μL of test compound at the selected concentration. Test compound and BACE were then mixed with a pipettor and incubated for 20 min at room temperature. To each well was then added 10 μL of the substrate working solution. The plates were then incubated for 1 hour at room temperature.
The procedure for the blank was as follows. 15 μL of assay buffer was pipetted into each well to be used as a blank control. To each well was then added 2 μL of vehicle and 10 μL of substrate working solution. The plates were then incubated for 1 hour at room temperature.
The procedure for the positive control was as follows: 15 μl of BACE working solution was pipetted into each well to be used as a positive control. To each well was then pipetted 2 μL of vehicle. Vehicle and BACE were then mixed with a pipettor and incubated for 20 min at room temperature. To each well was then added 10 μL of the substrate working solution. The plates were then incubated for 1 hour at room temperature.
For test compounds, % inhibition was determined at each concentration as follows: […]

Compound	IC50 (β-secretase(BACE) [1])	IC50 (β-secretase(BACE) [2])	Ki (β-secretase(BACE) [2])	inhibition at 3 µM (β-secretase(BACE) [3]; 3 μM test compound)	inhibition at 10 µM (β-secretase(BACE) [3]; 10 μM test compound)	inhibition at 0.3 µM (β-secretase(BACE) [3])	inhibition at 1 µM (β-secretase(BACE) [3])	% Inhibition (β-secretase(BACE) [3]; 3 μM test compound)	% Inhibition (β-secretase(BACE) [3]; 10 μM test compound)	% Inhibition (β-secretase(BACE) [3]; 3 μM test compound, 3 µM)
CN(C(=O)CCC(CCC(=O)N(C)C1CCCCC1)N1Cc2cc(Oc3ccccc3)ccc2N=C1N)C1CCCCC1 [Compound 84, 4-(2-Amino-6-phenoxy-4H-quinazolin-3-yl)-heptanedioic acid bis-(cyclohexyl-methyl-amide)]	0.47 µM	3.1 µM	0.76 µM	38%	63%					
CCCN1Cc2cc(Oc3cccc(NC(=O)OCc4ccccc4)c3)ccc2N=C1N [Compound 67]	0.68 µM	3.9 µM	0.81 µM	44%	71%					
NC1=Nc2ccc(Oc3ccccc3)cc2CN1C(CCNC(=O)CC1CCCC1)C1CCCCC1 (stereo not drawn) [Compound 393]	0.15 µM		0.29 µM	113%		< 30%	52%			
CN(C(=O)CCN1Cc2cc(Oc3ccccc3)ccc2N=C1N)C1CCCCC1 [Compound 20, 3-(2-Amino-6-phenoxy-4H-quinazolin-3-yl)-N-cyclohexyl-N-methyl-propionamide]	0.48 µM	2.1 µM	0.34 µM	68%	83%					
CCCC(CNC(=O)C1CCCCC1)N1Cc2cc(Oc3ccccc3)ccc2N=C1N (stereo not drawn) [Compound 343]	0.041 µM		0.065 µM	118%		81%	101%			
NC1=Nc2ccc(Oc3ccccc3)cc2CN1C(CNC(=O)c1ccccc1)C1CCCCC1 (stereo not drawn) [Compound 319]	0.053 µM		0.074 µM	120%		61%	95%			
NC1=Nc2ccc(Oc3ccccc3)cc2CN1C(CNC(=O)C1CCCCC1)c1ccccc1 (stereo not drawn) [Compound 342]	0.082 µM		0.19 µM	119%		50%	93%			
NC1=Nc2ccc(C(=O)c3ccccc3)cc2CN1CCNC(=O)C1CCCCC1 [Compound 7, Cyclohexanecarboxylic acid [2-(2-amino-6-benzoyl-4H-quinazolin-3-yl)-ethyl]-amide]	1.4 µM	5.3 µM	0.24 µM	76%	87%					
CN(CCc1ccccc1)C(=O)CCCCN1Cc2cc(C(=O)c3ccccc3)ccc2N=C1N [Compound 50]	1 µM	11 µM	0.53 µM	< 30%	34%					
CCCN1Cc2cc(Oc3cccc(NCC4CCCCC4)c3)ccc2N=C1N [Compound 55]	0.28 µM	2.4 µM	0.79 µM	62%	95%					
CCCN1Cc2cc(Oc3cccc(NC4CCCCC4)c3)ccc2N=C1N [Compound 53]	1 µM	6.8 µM	0.82 µM	34%	82%					
CCCN1Cc2cc(Oc3cccc(NS(=O)(=O)c4ccccc4)c3)ccc2N=C1N [Compound 61]	0.2 µM	0.44 µM	0.23 µM	75%	87%					
CC(C)(C)OC(=O)NCCN1Cc2cc(Oc3ccccc3)ccc2N=C1N [Compound 80]	0.11 µM	0.94 µM	0.12 µM	61%	80%					
NC1=Nc2ccc(Oc3ccccc3)cc2CN1CCCNC(=O)C1CCCCC1 [Compound 108]	0.32 µM	0.954 µM	0.076 µM	73%	90%					
CN(CCCN1Cc2cc(C(=O)c3ccccc3)ccc2N=C1N)C1CCCCC1 [Compound 15, {2-Amino-3-[3-(cyclohexyl-methyl-amino)-propyl]-3,4-dihydro-quinazolin-6-yl}-phenyl-methanone]	2.3 µM		4 µM	42%	69%					
NC1=Nc2ccc(Oc3ccccc3)cc2CN1C(CCNC(=O)C1CCCCC1)C1CCCCC1 (stereo not drawn) [Compound 391]	0.054 µM		0.1 µM	115%		35%	93%			
NC1=Nc2ccc(Oc3ccccc3)cc2CN1C(CCNC(=O)C1CCCC1)C1CCCCC1 (stereo not drawn) [Compound 392]	0.093 µM		0.16 µM	120%		75%	116%			
CN(CCN1Cc2cc(C(=O)c3ccccc3)ccc2N=C1N)C(=O)C1CCCCC1 [Compound 23]	4.9 µM	10 µM	1.1 µM	47%	76%					
CN(C(=O)CCCCN1Cc2cc(C(=O)c3ccccc3)ccc2N=C1N)C1CCCCC1 [Compound 27]	1.2 µM	3 µM	0.66 µM	63%	81%					
CN(Cc1cccc2ccccc12)C(=O)CCCCN1Cc2cc(C(=O)c3ccccc3)ccc2N=C1N [Compound 51]	2.2 µM	13 µM	1.2 µM	< 30%	56%					
NC1=Nc2ccc(Oc3ccccc3)cc2CN1CCNC(=O)C1CCCC1 [Compound 112]	0.12 µM		0.59 µM	88%	92%					
3-(2-Amino-6-phenoxy-4H-quinazolin-3-yl)-pentanedioic acid bis-(cyclohexyl-methyl-amide) [Compound 107]	0.82 µM	4.58 µM	1.2 µM					48%	78%	
NC1=Nc2ccc(Oc3ccccc3)cc2CN1CCNC(=O)C1CCCCC1 [Compound 111, Cyclohexanecarboxylic acid [2-(2-amino-6-phenoxy-4H-quinazolin-3-yl)-ethyl]-amide]	0.1 µM		0.082 µM and 0.067 µM		94%	63%	96%			84% and 115%
CCCC(CNC(=O)OC(C)(C)C)N1Cc2cc(Oc3ccccc3)ccc2N=C1N (stereo not drawn) [Compound 318]	0.25 µM		0.19 µM	103%		32%	70%			
CCCN1Cc2cc(Oc3cccc(N(C(=O)OCc4ccccc4)C4CCCCC4)c3)ccc2N=C1N [Compound 49]	0.8 µM	2.8 µM	0.84 µM	56%	90%					
NC1=Nc2ccc(Oc3ccccc3)cc2CN1CCCCC(=O)N(C1CCCCC1)C1CCCCC1 [Compound 19]	0.18 µM	1.6 µM	0.38 µM	67%	92%					
